The source of these data is paper PMC12519464, “Dual-Site Inhibition of SARS-CoV‑2 RNA-Dependent RNA Polymerase by Small Molecules Able to Block Viral Replication Identified through a Computer-Aided Drug Discovery Approach” (ACS Infectious Diseases, 2025).

The target of data set [1] is SARS-CoV-2 nsp12/7/8 (RTC) complex (Severe acute respiratory syndrome coronavirus 2, UniProt P0DTD1). Briefly: biochemical. It is filed as biochemical.
Data set [2] concerns SARS-CoV-2 (BetaCov/Belgium/GHB-03021/2020). The data set is described as follows: in vitro. The settings on record: African green monkey.
Data set [3] can be described thus: Compounds cytotoxicity in the Vero E6 cell line. The settings on record: African green monkey, Vero E6 cells stably expressing GFP, with CP-100356 (P-gp inhibitor), 2 μM.
For data set [4], the system named is SARS-CoV-2 (BetaCov/Belgium/GHB-03021/2020). Briefly: microbe, parasite or virus in culture. The note with it: Severe acute respiratory syndrome coronavirus 2, Vero C1008, read-out: EC50: compound concentration required to inhibit SARS-CoV-2 replication by 50%.
Another data set concerns RNA substrate. Briefly: Microscale Thermophoresis/Spectral Shift binding assay with RNA substrate (Monolith X). The note with it: data not shown. On the technique in general: MST reads how a fluorescent partner responds to local heating, with and without ligand.
Another data set has as its system SARS-CoV-2. The settings on record: cited from earlier work.
A further data set in a line: in vitro. The note with it: African green monkey.
Another data set concerns the target SARS-CoV-2 RTC (Severe acute respiratory syndrome coronavirus 2, UniProt P0DTD1). Format: biochemical. The settings on record: competing against RNA or GTP substrates; Lineweaver-Burk plots.
Data set [5] relates to SARS-CoV-2 (BetaCov/Belgium/GHB-03021/2020).
The target in the next data set is SARS-CoV-2 minimal RTC (Severe acute respiratory syndrome coronavirus 2, UniProt P0DTD1). It is filed as binding.
The mark [6] stands for this setting: primer-extension PAGE assay, 150 nM RTC, 5% DMSO, 30 min preincubation at 37 °C, mean and SD of at least 3 independent experiments.
The mark [7] stands for this setting: 500 µM compound, Microscale Thermophoresis, Fig. S3.

Where two headings read alike, the source gives them in different places.

For orientation: IC50 means the concentration that inhibits the measured activity by half. `CC(=O)O[C@@H]1CC[C@@]2(C)[C@@H](CC[C@]3(C)[C@@H]2C(=O)C=C2[C@@H]4[C@@H](C)[C@H](C)CC[C@]4(C)CC[C@]23C)[C@@]1(C)C(=O)O` [AKBA, 3-O-Acetyl-11-Keto-Beta-Boswellic Acid] registered an IC50 in data set [1] of 4.98 ± 1.44 µM. Also, in data set [2], the selectivity ratio was more than 20.8. In data set [3], the CC50 at 24 h was more than 100 µM. Besides, the EC50 in data set [4] was determined as 4.81 ± 2.15 µM.

In data set [1] (setting [6]), `O=C(O)c1c(Cl)c(Cl)c(Cl)c(Cl)c1-c1c2cc(I)c(=O)c(I)c-2oc2c(I)c(O)c(I)cc12` [Rose bengal] returned a half-maximal inhibitory concentration (IC50) of 0.25 ± 0.0036 µM. For the same compound, in data set [2], the selectivity ratio was more than 546. In addition, the EC50 in data set [4] was 0.18 ± 0.02 µM; in the data set on SARS-CoV-2 (ref previous studies (number not given; probably 25, Rubekina et al.), read-out: EC50, inhibition of SARS-CoV-2 replication), 0.5 µM. Besides, in the data set on RNA substrate, the “interaction with RNA substrate” value is “no evidence of interaction”. The same compound showed a CC50 in “in vitro” of more than 100 µM. For the same compound, the “mode of inhibition of SARS-CoV-2 RdRp” value on SARS-CoV-2 RTC was “mixed model of inhibition”.

Take `Cc1oc2c(C)c3oc(=O)c(CCC(=O)N4CCC(C(=O)O)(c5ccccc5)CC4)c(C)c3cc2c1-c1ccccc1` [Cmp_4, 4-phenyl-1-[3-(2,5,9-trimethyl-7-oxo-3-phenylfuro[3,2-g]chromen-6-yl)propanoyl]piperidine-4-carboxylic acid]: in data set [1] (setting [6]), 8.21 ± 4.87 µM corresponded to half-maximal inhibition (IC50). Also, the selectivity ratio in [2] is more than 38.4. The EC50 in data set [4] came to 2.61 ± 0.18 µM. The same compound yielded a CC50 at 24 h in the data set “in vitro” of more than 100 µM.

`CC(C)C[C@H](NC(=O)OCc1ccccc1)C(=O)N[C@@H](C[C@@H]1CCNC1=O)C(O)S(=O)(=O)[O-].[Na+]` (stereo partly drawn) [GC376]: in [5], the “SI: selective index, ratio of CC50/EC50” value is >5,882.

`CC1(C)CCC(CN2CCN(c3ccc(C(=O)NS(=O)(=O)c4ccc(NCC5CCOCC5)c([N+](=O)[O-])c4)c(Oc4cnc5[nH]ccc5c4)c3)CC2)=C(c2ccc(Cl)cc2)C1` [Venetoclax] gave a response amplitude at SARS-CoV-2 minimal RTC (setting [7]) of 3.9. Further, the signal-to-noise ratio on SARS-CoV-2 minimal RTC (setting [7]) is 7.7. On SARS-CoV-2 minimal RTC (single concentration of 500 μM of compound), the “binding check to SARS-CoV-2 minimal RTC” value was “specific binding”. The compound also gave an IC50 in data set [1] (setting [6]) of 2.37 ± 0.42 µM. Also, the selectivity ratio in data set [2] is more than 118. Moreover, the EC50 in [4] was 0.85 ± 0.08 µM; in the data set with SARS-CoV-2 (ref number not printed in the text (probably 27, Milani et al.), read-out: EC50, inhibition of SARS-CoV-2 replication in cell culture) it was 6 µM. In addition, in the data set “in vitro”, the CC50 was more than 100 µM. The “mode of inhibition of SARS-CoV-2 RdRp” value at SARS-CoV-2 RTC is reported as “noncompetitive mode of inhibition”.

As for `CC(C)C[C@H](NC(=O)OCc1ccccc1)C(=O)N[C@@H](CC1CCNC1=O)C(O)S(=O)(=O)O` (stereo partly drawn) [GC376], in the data set on Vero E6 GFP, the CC50 was more than 100 µM. Also, the EC50 in data set [5] (read-out: EC50: compound concentration required to inhibit SARS-CoV-2 replication by 50%) turned out to be 0.06 ± 0.03 µM.

In [1], `CC(=O)c1nn(CC(=O)N2C[C@H](F)C[C@H]2C(=O)Nc2cccc(Br)n2)c2ccc(-c3cnc(C)nc3)cc12` [Danicopan, reference compound] came in with an IC50 of more than 100 µM.

For `CC(C)=CCC[C@](C)(O[C@@H]1O[C@H](CO)[C@@H](O)[C@H](O)[C@H]1O)[C@H]1CC[C@]2(C)[C@@H]1[C@H](O)C[C@@H]1[C@@]3(C)CC[C@H](O)C(C)(C)[C@@H]3[C@@H](O)C[C@]12C` [Ginsenoside F1], the IC50 in data set [1] is more than 100 µM.

For the compound `C[C@@H]1O[C@@H](O[C@H]2CC[C@]3(C=O)[C@H]4CC[C@]5(C)[C@@H](c6ccc(=O)oc6)CC[C@]5(O)[C@@H]4CC[C@]3(O)C2)[C@H](O)[C@H](O)[C@H]1O[C@@H]1O[C@H](CO)[C@@H](O)[C@H](O)[C@H]1O` [Hellebrin], in data set [1], the IC50 is more than 100 µM.
